Measurements taken from patent US10688169B2 (priority 2015, dated 2020).
“Also recorded” adds a separate entry of the source.

Tested on: ZIKA rabbits
Type: in vivo
Conditions: rabbits n=3 immunized with CRM197-23* in alhydrogel day 0 and 14; sera before and after immunization

C[C@@H]1O[C@@H](O[C@H]2C(C(=O)O)O[C@H](OC3C(O)[C@@H](O)[C@H](C)O[C@H]3OC3C(O)[C@@H](O)[C@H](C)O[C@H]3OC3C(O)[C@@H](O)[C@H](C)O[C@H]3OCCCCCN)C(O)[C@H]2O[C@@H]2OC(CO)[C@H](O)[C@H](O)C2O)C(O)C(O)[C@H]1O (stereo partly drawn) [hexasaccharide 23*, 5-Amino-pentanyl α-L-rhamnopyranosyl-(1→4)-[P3-D-galactopyranosyl-(1→3)]-α-D-galactopyranosyluronic acid-(1→2)-α-L-rhamnopyranosyl-(1→2)-α-L-rhamnopyranosyl-(1→2)-α-L-rhamnopyranoside]
immunogenicity and cross-reactivity of antibodies by glycan microarray: specific antibodies are cross-reactive with native polysaccharide and other synthetic glycans; also recorded: immunogenic in rabbits and induces cross-reactive antibodies
